Laboratory results: patent publication US5270302A, “Derivatives of tetrapeptides as CCK agonists” (priority 1991, dated 1993)
pIC50: −log10 of the molar value. Like-named read-outs stand apart in the source and are kept apart here. *1 amine or outer side, *2 acyl side, *3 side chain or, on linkers, in order; H or OH if unused. Where a SMILES comes first, the peptide text is derived from it. Side-chain parts run from the residue outwards. [ ]: non-standard residue; d: D form. The star is where a group is joined. Propanoyl(3,3-Ph2) = O=C(CC(c1ccccc1)c1ccccc1)*; NMeF = CN[C@@H](Cc1ccccc1)C(=O)O; NMeD = CN[C@@H](CC(=O)O)C(=O)O; X4 = O=C(OC1C2CC3CC(C2)CC1C3)*; NH(2-Me-phenyl) = Cc1ccccc1N*; X1 = O=C(C=Cc1ccc(O)cc1)*; 2Abz = Nc1ccccc1C(=O)O; Boc = CC(C)(C)OC(=O)*; CO = O=C([*:1])[*:2]; Bz = O=C(c1ccccc1)*; NHPh = c1ccc(N*)cc1; NHtBu = CC(C)(C)N*; Moc = COC(=O)*

What was measured:
Type-A CCK receptor = molecular target: T1, Type-A CCK receptor (Cavia porcellus, UniProt Q63931); assay: Radioligand binding of [125I]BH-CCK-8 in guinea pig pancreatic membrane preparations; settings: for IC50: guinea pig pancreatic membranes, 37° C., 150 min
T1 construct: Cortical and pancreatic membranes were prepared as described; from tissue; host or cells: guinea pig pancreas membranes
T1 sequence (Q63931 1-430): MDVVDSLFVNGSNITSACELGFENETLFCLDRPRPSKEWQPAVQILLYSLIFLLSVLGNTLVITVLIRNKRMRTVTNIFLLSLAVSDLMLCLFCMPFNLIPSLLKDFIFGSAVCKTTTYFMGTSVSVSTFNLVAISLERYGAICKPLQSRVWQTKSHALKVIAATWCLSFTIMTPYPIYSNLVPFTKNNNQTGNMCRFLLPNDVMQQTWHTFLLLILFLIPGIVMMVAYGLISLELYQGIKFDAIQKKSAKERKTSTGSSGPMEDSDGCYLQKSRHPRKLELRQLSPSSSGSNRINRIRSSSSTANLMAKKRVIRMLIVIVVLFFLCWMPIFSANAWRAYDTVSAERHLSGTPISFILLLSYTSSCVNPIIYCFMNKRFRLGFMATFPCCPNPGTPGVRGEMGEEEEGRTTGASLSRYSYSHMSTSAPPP
Description: (§1) CCK-8 [Asp-Tyr(SO3 H)-Met-Gly-Trp-Met-Asp-PheNH2 ], bestatin and phosphoramidion were purchased from Peptide International (Louisville, Ky.). EGTA (ethylene glycol-bis-(β-aminoethyl) N,N,N',N'-tetraacetic acid), HEPES (4-(2-hydroxyethyl)-1-piperazine-enthanesulfonic acid) and BSA (bovine serum albumin) were purchased from Sigma Chemical Co. (St. Louis, Mo.). [^125 I]-Bolton-Hunteer (BH-CCK-8) (specific activity, 2200 Ci/mmol) was obtained from New England Nuclear (Boston, Mass.). Male guinea pigs, 250 to 325 g, were obtained from Scientific Small Animal Laboratory and Farm (Arlington Heights, Ill.). Collagenase, code CLSPA was purchased from Worthington (Frehold, N.J.).
(§2) Protocol For Radioligand Binding Experiments in Guinea Pig Cerebral Cortical and Pancreatic Membrane Preparations
(§3) Cortical and pancreatic membranes were prepared as described (Lin and Miller; J. Pharmacol. Exp. Ther. 1985, 232:775-780,). In brief, cortex and pancreas were removed and rinsed with ice-cold saline. Visible fat and connective tissues were removed from the pancreas. […] The homogenates were entrifuged for 10 minutes at 1075×g and pellets were discarded. The supernatants were saved and centrifuged at 38,730×g for 20 minutes. The resultant pellets were rehomogenized in 25 mL of 50 mM Tris-HCl buffer with a Teflon-glass homogenizer, 5 up and down strokes. The homogenates were centrifuged again at 38,730×g for 20 minutes. Pellets werre then resuspended in 20 mM HEPES, containing 1 mM EGTA, 118 mM NaCl, 4.7 mM KCl, 5 mM MgCl2, 100 μM bestatin, 3 μM phosphoramidon, pH 7.4 at 22° C. with a Teflon-glass homogenizer, 15 up and down strokes. Resuspension volume for the cortex was 15-18 mL per gram of original wet weight and 60 mL per gram for the pancreas.
(§4) [^125 I]Bolton-Hunter CCK-8 and test compounds were diluted with HEPES-EGTA-salt buffer (see above) containing 0.5% BSA. To 1 mL Skatron polystyrene tubes were added 25 μL of test compounds, 25 μL of [^125 I]BH-CCK-8 and 200 μL of membrane suspension. The final BSA concentration was 0.1%. The cortical tissues were incubated at 30° C. for 150 minutes and pancreatic tissues were incubated at 37° C. for 150 min. Incubations were terminated by filtration using Skatron Cell Harvester and SS32 microfiber filter mats. […] IC50 s were determined from the Hill analysis.

Type-B CCK receptor = molecular target: T2, Type-B CCK receptor (Cavia porcellus, UniProt H0VZC5); assay: Radioligand binding of [125I]BH-CCK-8 in guinea pig cerebral cortical membrane preparations; settings: for IC50: guinea pig cortical membranes, 30° C., 150 minutes
T2 construct: Cortical and pancreatic membranes were prepared as described; from tissue; host or cells: guinea pig cerebral cortex membranes
T2 sequence (H0VZC5 1-426): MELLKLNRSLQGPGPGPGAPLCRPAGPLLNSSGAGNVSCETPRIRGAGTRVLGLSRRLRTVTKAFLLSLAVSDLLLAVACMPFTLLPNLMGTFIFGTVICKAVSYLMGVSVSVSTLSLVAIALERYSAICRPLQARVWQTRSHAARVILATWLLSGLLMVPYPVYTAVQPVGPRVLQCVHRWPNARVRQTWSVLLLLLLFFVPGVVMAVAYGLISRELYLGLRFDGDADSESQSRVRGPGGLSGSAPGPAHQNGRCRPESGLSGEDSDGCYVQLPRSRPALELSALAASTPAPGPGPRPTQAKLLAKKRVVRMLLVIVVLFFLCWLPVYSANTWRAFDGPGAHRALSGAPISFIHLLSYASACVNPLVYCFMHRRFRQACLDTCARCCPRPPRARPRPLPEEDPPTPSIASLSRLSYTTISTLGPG
Description: as §1, §2, §3, §4

[1] = IC50 (nM) 125I-BH-CCK-8 Type-A receptor
[2] = IC50 (nM) 125I-BH-CCK-8 Type-B receptor
[3] = read-out: IC50 (nM) 125I-BH-CCK-8 Type-B receptor

SMILES	pIC50 (Type-A CCK receptor)	pIC50 (Type-B CCK receptor)	IC50 (Type-B CCK receptor; [3]) [nM]	further results
Cc1ccccc1NC(=O)NCCCC[C@H](NC(=O)C1Cc2c[nH]c3cccc(c23)CC(=O)N1)C(=O)N[C@@H](CC(=O)O)C(=O)N(C)[C@@H](Cc1ccccc1)C(N)=O (stereo partly drawn) [Example 112, Ctp-Lys(ε-N-(2-methylphenyl)aminocarbonyl)-Asp-(NMe)PheNH2]	–	–	–	IC50 (Type-A CCK receptor; [1]): 6.3 nM; IC50 (Type-B CCK receptor; [2]): 900 nM
Cc1ccccc1NC(=O)NCCCC[C@H](NC(=O)[C@H](Cc1c[nH]c2ccccc12)NC(=O)OC1C2CC3CC(C2)CC1C3)C(=O)N[C@@H](CC(=O)O)C(=O)N(C)[C@@H](Cc1ccccc1)C(N)=O (stereo partly drawn) [Example 74, 2-Adamantyloxycarbonyl-Trp-Lys(ε-N-(2-methylphenyl)aminocarbonyl)Asp-(NMe)PheNH2] (X4-WK([CO-NH(2-Me-phenyl)])D[NMeF]-NH2)	7.66	5.10	–	–
Cc1ccccc1NC(=O)NCCCC[C@H](NC(=O)[C@H](Cc1c[nH]c2ccccc12)NC(=O)CC(c1ccccc1)c1ccccc1)C(=O)N[C@@H](CC(=O)O)C(=O)N(C)[C@@H](Cc1ccccc1)C(N)=O [Example 92, (3,3-Diphenylpropionyl)-Trp-Lys(ε-N-(2-methylphenyl)aminocarbonyl)-Asp-(NMe)PheNH2] ({Propanoyl(3,3-Ph2)}-WK([CO-NH(2-Me-phenyl)])D[NMeF]-NH2)	8.25	5.30	–	–
CN(C(=O)[C@H](CCCCNC(=O)C=Cc1ccc(O)cc1)NC(=O)[C@H](Cc1c[nH]c2ccccc12)NC(=O)OC(C)(C)C)[C@@H](CC(=O)O)C(=O)N[C@@H](Cc1ccccc1)C(N)=O [Example 71, t-BOC-Trp-Lys(ε-N-(4-hydroxycinnamoyl))-(NMe)Asp-PheNH2] (Boc-WK(X1)[NMeD]F-NH2)	–	–	5800	IC50 (Type-A CCK receptor; read-out: IC50 (nM) 125I-BH-CCK-8 Type-A receptor): 4.9 nM
Cc1ccccc1NC(=O)NCCCC[C@H](NC(=O)[C@H](Cc1c[nH]c2ccccc12)NC(=O)c1ccccc1)C(=O)N[C@@H](CC(=O)O)C(=O)N(C)[C@@H](Cc1ccccc1)C(N)=O [Example 89, Benzoyl-Trp-Lys(ε-N-(2-methylphenyl)aminocarbonyl)-Asp-(NMe)PheNH2] (Bz-WK([CO-NH(2-Me-phenyl)])D[NMeF]-NH2)	–	–	–	IC50 (Type-A CCK receptor; [1]): 1.8 nM; IC50 (Type-B CCK receptor; [2]): 4600 nM
COC(=O)N[C@@H](Cc1c[nH]c2ccccc12)C(=O)N[C@@H](CCCCNC(=O)Nc1ccccc1C)C(=O)N[C@@H](CC(=O)O)C(=O)N(C)[C@@H](Cc1ccccc1)C(N)=O [Example 80, Methoxycarbonyl-Trp-Lys(ε-N-(2-methylphenyl)aminocarbonyl)-Asp-(NMe)PheNH2] (Moc-WK([CO-NH(2-Me-phenyl)])D[NMeF]-NH2)	8.32	5.28	–	–
CC(C)(C)NC(=O)NCCCC[C@H](NC(=O)[C@H](Cc1c[nH]c2ccccc12)NC(=O)OC(C)(C)C)C(=O)N[C@@H](CC(=O)O)C(=O)N[C@@H](Cc1ccccc1)C(N)=O [Example 32, t-BOC-Trp-Lys(ε-N-(t-butylaminocarbonyl))-Asp-PheNH2] (Boc-WK([CO-NHtBu])DF-NH2)	–	–	5600	–
COC(=O)c1ccccc1NC(=O)NCCCC[C@H](NC(=O)[C@H](Cc1c[nH]c2ccccc12)NC(=O)OC(C)(C)C)C(=O)N[C@@H](CC(=O)O)C(=O)N[C@@H](Cc1ccccc1)C(N)=O [Example 45, t-BOC-Trp-Lys(ε-N-(2-(methoxycarbonyl)phenyl)aminocarbonyl)-Asp-PheNH2] (Boc-WK([CO-2Abz-OMe])DF-NH2)	–	5.52	–	–
CC(C)(C)OC(=O)N[C@@H](Cc1c[nH]c2ccccc12)C(=O)N[C@@H](CCCCNC(=O)Nc1ccccc1)C(=O)N[C@@H](CC(=O)O)C(=O)N[C@@H](Cc1ccccc1)C(N)=O [Example 29, t-BOC-Trp-Lys(ε-N-(phenylaminocarbonyl))-Asp-PheNH2] (Boc-WK([CO-NHPh])DF-NH2)	–	–	1100	–
